Source: ChEMBL document CHEMBL1201862, “PubChem BioAssay data set” (2004)
Values joined by “and” are separate entries in the source; they are usually repeats but may differ in a detail not shown here. Equal values may be shown once.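 Briefly, cells in 96-well plates were exposed to five compound concentrations for 48 h, and endpoints were estimated by linear interpolation. Abbreviation: GI50, concentration required for 50% inhibition of growth.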 Active and inactive are the calls of the source. Cut-off read from the data, not from the text of the source: active = GI50 up to about 1.1 µM and inactive = higher.

What was measured:
Experiment in all cases: growth of human tumour cells (NCI), 48 h
OVCAR-3 = test system: OVCAR-3
MDA-N = test system: MDA-N
SNB-19 = test system: SNB-19
SNB-75 = test system: SNB-75
UACC-257 = test system: UACC-257
SF-295 = test system: SF-295
SK-MEL-5 = test system: SK-MEL-5
786-0 = test system: 786-0
HCT-116 = test system: HCT-116
KM12 = test system: KM12
COLO 205 = test system: COLO 205
U-251 = test system: U-251
SK-MEL-2 = test system: SK-MEL-2
SF-539 = test system: SF-539
SW-620 = test system: SW-620
OVCAR-4 = test system: OVCAR-4
OVCAR-5 = test system: OVCAR-5
NCI-H522 = test system: NCI-H522
LOX IMVI = test system: LOX IMVI
K562 = test system: K562

Measured: GI50

Cc1cccc2sc(NC(=O)NS(=O)(=O)n3cnc4ccccc43)nc12
inactive: OVCAR-3 22.3 µM | MDA-N 31.3 µM | SNB-19 38 µM | SNB-75 18.8 µM | UACC-257 23 µM | SF-295 20.9 µM | SK-MEL-5 21.7 µM | 786-0 33.8 µM | HCT-116 28.1 µM | KM12 30.4 µM | COLO 205 27.8 µM | U-251 21 µM | SK-MEL-2 18.7 µM | SF-539 24 µM | SW-620 28.4 µM | OVCAR-4 43.8 µM | OVCAR-5 25.9 µM | NCI-H522 21.6 µM

COC(=O)C1OC(O[C@H]2CC[C@]3(C)[C@H]4CC=C5[C@@H]6CC(C)(C)CC[C@]6(C(=O)OC6OCC(O)C(O)C6OC6OC(C)C(OC7OCC(O)C(O)C7O)C(O)C6O)CC[C@@]5(C)[C@]4(C)CC[C@H]3C2(C)C)C(O)C(O)C1O (some centres not stated)
inactive: LOX IMVI 16.4 µM and 14.6 µM | K562 25.8 µM and 26 µM | OVCAR-3 39.5 µM and 42.8 µM | MDA-N 18.5 µM and 15.9 µM | SNB-19 13.6 µM and 17.2 µM | SNB-75 16.5 µM and 16.1 µM | UACC-257 14 µM and 16 µM | SF-295 18.2 µM and 17.4 µM | SK-MEL-5 17.9 µM and 17.8 µM | 786-0 15.7 µM and 17.5 µM | HCT-116 17.1 µM and 18.4 µM | KM12 15.6 µM and 16.2 µM | COLO 205 13.1 µM and 16.9 µM | U-251 18.4 µM and 18.7 µM | SK-MEL-2 19.7 µM and 17.6 µM | SW-620 19.6 µM and 21.9 µM | OVCAR-4 15.8 µM and 12.7 µM | OVCAR-5 16.5 µM and 20.7 µM | NCI-H522 16.1 µM and 16.4 µM

Clc1cc2c(cc1Cl)CC(NCCN1CCCC1)CC2 (configuration not stated)
inactive: LOX IMVI 13.3 µM | K562 10.8 µM | OVCAR-3 17.1 µM | MDA-N 3.85 µM | SNB-19 20.5 µM | UACC-257 7.82 µM | SF-295 16.1 µM | SK-MEL-5 3.74 µM | 786-0 13.2 µM | HCT-116 12.9 µM | KM12 15.2 µM | COLO 205 3.07 µM | U-251 15.9 µM | SK-MEL-2 17.8 µM | SF-539 13.6 µM | SW-620 18.9 µM | OVCAR-4 17.2 µM | OVCAR-5 14.6 µM | NCI-H522 17.1 µM

O=C(Nc1ccccc1C(=O)O)/C(=C/c1ccccc1)NC(=O)c1ccccc1
inactive: LOX IMVI > 100 µM | K562 > 100 µM | OVCAR-3 > 100 µM | MDA-N > 100 µM | SNB-19 > 100 µM | SNB-75 > 100 µM | UACC-257 > 100 µM | SF-295 > 100 µM | SK-MEL-5 > 100 µM | 786-0 > 100 µM | HCT-116 > 100 µM | KM12 > 100 µM | COLO 205 > 100 µM | U-251 > 100 µM | SK-MEL-2 > 100 µM | SF-539 > 100 µM | SW-620 > 100 µM | OVCAR-5 > 100 µM | NCI-H522 > 100 µM

CC(=O)O[C@H]1C[C@@H](OC(C)=O)[C@@](C)(O)[C@@H]2[C@@H](OC(C)=O)[C@@]3(O)[C@H](/C=C(/CO)[C@H]4O[C@H]4[C@@H](OC(C)=O)[C@@]12C)OC(=O)[C@@H]3C
inactive: LOX IMVI 8.71 µM | K562 17.7 µM | OVCAR-3 5.51 µM | MDA-N 3.09 µM | SNB-19 > 25 µM | SNB-75 5.53 µM | UACC-257 13.7 µM | SF-295 6.12 µM | SK-MEL-5 9.25 µM | 786-0 7.64 µM | HCT-116 10.3 µM | KM12 13.5 µM | COLO 205 9.35 µM | U-251 6.1 µM | SK-MEL-2 6.89 µM | SW-620 11.5 µM | OVCAR-4 > 25 µM | OVCAR-5 > 25 µM | NCI-H522 5.42 µM

C=CC(Br)(CBr)CCC(Br)C(C)(C)Cl (configuration not stated)
inactive: K562 1.75 µM | OVCAR-3 2.23 µM | MDA-N 3.09 µM | SNB-19 1.71 µM | SNB-75 2.71 µM | UACC-257 3.87 µM | SF-295 1.82 µM | SK-MEL-5 7.76 µM | 786-0 2.35 µM | HCT-116 1.64 µM | KM12 1.6 µM | COLO 205 2.21 µM | U-251 1.53 µM | SK-MEL-2 8.73 µM | SF-539 1.99 µM | SW-620 2.05 µM | OVCAR-4 4.08 µM | OVCAR-5 7.11 µM | NCI-H522 1.38 µM

CNS(=O)(=O)c1ccccc1C(=N)c1ccccc1
inactive: LOX IMVI > 100 µM | K562 > 100 µM | OVCAR-3 > 100 µM | MDA-N > 100 µM | SNB-19 > 100 µM | SNB-75 56.4 µM | SF-295 > 100 µM | SK-MEL-5 > 100 µM | 786-0 > 100 µM | HCT-116 > 100 µM | KM12 > 100 µM | COLO 205 > 100 µM | U-251 > 100 µM | SK-MEL-2 > 100 µM | SF-539 > 100 µM | SW-620 > 100 µM | OVCAR-4 > 100 µM | OVCAR-5 > 100 µM | NCI-H522 > 100 µM
